{
  "source": "patent US10722591B2",
  "about": "“Cleavable conjugates of TLR7/8 agonist compounds, methods for preparation, and uses thereof” (Dynavax Technologies Corporation, priority 2017, dated 2020)",
  "key": {"[1]": {"tested_on": "CT26 colon carcinoma", "test": "Tumor growth inhibition, weekly intratumoral doses, CT26 tumor bearing mice (Example B3)", "type": "in vivo, Balb/c mice", "conditions": "intratumoral on days 8, 16, 23; 1 μg molar equivalent of IMDQ (64-53a, 64-54a) or 0.63 ug (64-10a); to day 27", "protocol": "The effect of weekly intratumoral doses of Compound No. 64-53a, Compound No. 64-54a, Compound No. 64-10a, or a PBS vehicle control on tumor growth inhibition was assessed in syngeneic CT26 colon carcinoma-bearing Balb/c mice. Compound No. 64-53a differs from Compound No. 64-53 in that it contains a monomethyl group adjacent to the disulfide cleavable linker rather than the disulfide variant. Compound No. 64-54a differs from Compound No. 64-54 in that it contains a (PEG)4 to the N-terminus of the peptide cleavable linker rather than a (PEG)12 variant. […] Compound No. 64-10a is the free amine (i.e., unconjugated) form of Compound No. 64-10, the structure of which is shown in Table 1. All in vivo procedures were conducted in accordance with approved Institutional Animal Care and Use Committee (IACUC) protocols. The animals were housed in a facility that is accredited by the Association for Accreditation and Laboratory Animal Care (AALAC, Frederick, Md.). […]\n(§1) On day 0, mice were anesthetized with 1% isoflurane and 80,000 CT26 tumor cells in 200 μL of RMPI-1640 culture media plus 2.5% FBS were injected subcutaneously in the right flank. […] Tumor sizes were measured twice weekly from day 7 through day 27 with calipers, with tumor volumes calculated using the following formula: length, multiplied by width, multiplied by width, divided by 2."}, "[2]": {"biological_target": "T1, TLR7 (Homo sapiens, UniProt Q9NYK1)", "T1 sequence (Q9NYK1 27-1049)": "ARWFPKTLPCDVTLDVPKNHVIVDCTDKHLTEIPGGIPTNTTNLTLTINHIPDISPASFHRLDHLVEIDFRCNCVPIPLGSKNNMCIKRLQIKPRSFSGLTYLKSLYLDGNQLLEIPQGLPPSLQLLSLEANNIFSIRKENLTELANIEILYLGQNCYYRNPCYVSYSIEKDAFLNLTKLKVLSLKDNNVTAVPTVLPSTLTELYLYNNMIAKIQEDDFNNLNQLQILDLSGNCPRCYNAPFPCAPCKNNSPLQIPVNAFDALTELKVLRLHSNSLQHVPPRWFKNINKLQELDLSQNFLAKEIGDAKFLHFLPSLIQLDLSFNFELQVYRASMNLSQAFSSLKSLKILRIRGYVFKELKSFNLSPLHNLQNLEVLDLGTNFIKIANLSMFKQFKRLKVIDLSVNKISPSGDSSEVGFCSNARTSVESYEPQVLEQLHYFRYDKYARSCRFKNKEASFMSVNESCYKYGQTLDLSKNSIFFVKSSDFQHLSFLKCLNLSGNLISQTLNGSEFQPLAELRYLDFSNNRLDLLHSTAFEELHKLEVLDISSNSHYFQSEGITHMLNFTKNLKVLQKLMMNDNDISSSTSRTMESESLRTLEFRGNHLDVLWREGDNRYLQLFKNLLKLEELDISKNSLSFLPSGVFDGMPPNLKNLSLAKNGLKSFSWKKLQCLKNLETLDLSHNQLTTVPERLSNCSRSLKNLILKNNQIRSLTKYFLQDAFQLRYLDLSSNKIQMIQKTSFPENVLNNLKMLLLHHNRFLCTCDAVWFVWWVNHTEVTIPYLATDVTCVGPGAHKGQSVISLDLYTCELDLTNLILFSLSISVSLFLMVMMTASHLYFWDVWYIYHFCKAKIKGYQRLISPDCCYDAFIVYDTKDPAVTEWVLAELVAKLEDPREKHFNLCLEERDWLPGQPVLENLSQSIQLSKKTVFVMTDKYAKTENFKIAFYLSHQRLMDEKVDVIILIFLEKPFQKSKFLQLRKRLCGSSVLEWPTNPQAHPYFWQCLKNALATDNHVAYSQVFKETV", "test": "TLR7 in vitro potency", "type": "cell-based"}, "[3]": {"tested_on": "CD86", "test": "APC maturation marker CD86 by flow cytometry after subcutaneous footpad injection", "type": "in vivo, BALB/c mice", "conditions": "1.8 μg IMDQ molar equivalents, both hind footpads, 24 hours", "protocol": "Popliteal lymph nodes and spleens were harvested after 24 hours, and single cell suspensions were prepared for subsequent staining and analysis by flow cytometry using antibodies to cell surface markers to identify different APCs and lymphocyte cell populations."}, "[4]": {"tested_on": "CT26 colon carcinoma", "test": "Tumor growth inhibition in combination with anti-PD-1, two contralateral CT26 tumors (Example B6)", "type": "in vivo, Balb/c mice", "conditions": "500 ng IMDQ equivalent intratumorally in combination with anti-PD-1 250 μg intraperitoneally", "protocol": "All in vivo procedures were conducted in accordance with approved Institutional Animal Care and Use Committee (IACUC) protocols. The animals were housed in a facility that is accredited by the Association for Accreditation and Laboratory Animal Care (AALAC, Frederick, Md.). Wild-type female Balb/c mice (15-20 g) were obtained from Envigo (Hayward, Calif.) and acclimated for 2-3 days prior to use. On experimental day 0, mice were anesthetized with 1% isoflurane, and 80,000 CT26 tumor cells in 200 uL of RMPI-1640 culture media plus 2.5% fetal bovine serum were injected subcutaneously in both the right and left flanks. Tumors (left and right) were allowed to grow until day 9, when the right and left flank tumor sizes had reached approximately 35 mm^3, at which point mice were injected intraperitoneally with 250 μg of anti-PD-1 antibody formulated in PBS or a PBS vehicle control. The anti-PD-1 treatments were repeated on experimental days 12, 16, 20, 23, and 28. On experimental day 15, when the right (injected) and left (distal) flank tumors had reached approximately 100 mm^3, mice were randomized into treatment groups with 10 mice per group. […] Tumor sizes were measured twice weekly from days 15 through day 30 with calipers, with tumor volumes calculated using the formula: length, multiplied by width, multiplied by width, divided by 2."}, "[5]": {"tested_on": "interferon-related genes (TLR7-mediated gene induction)", "test": "Gene expression in popliteal lymph nodes after single subcutaneous footpad injection", "type": "in vivo, BALB/c mice", "conditions": "0.04 μg", "protocol": "(§2) Blood was drawn after 2 hours, serum samples were prepared and the IL-6, IL-12p40, and TNFα protein levels were measured by ELISA. Lower limit of quantification (LLOQ) for each of these assays was 31.3 pg/mL, and the dotted lines on graphs represent the LLOQ multiplied by serum dilution factor. Popliteal lymph nodes (draining node for the site of injection) were removed after 6 hours and stored in RNAlater (Qiagen, Hilden Del.) prior to tissue homogenization and isolation of RNA for gene expression analysis by TaqMan® using a StepOnePlus Real Time PCR system (Applied Biosystems, Foster City Calif.). Gene expression data are expressed as fold increase in gene induction relative to PBS control (mean±SEM)."}, "[6]": {"tested_on": "IL-6, IL-12p40, and TNFα protein levels", "test": "Serum cytokine levels by ELISA after single subcutaneous footpad injection", "type": "in vivo, BALB/c mice", "conditions": "2 hours after footpad injection", "protocol": "as §2"}, "[7]": {"tested_on": "CT26 colon carcinoma", "test": "Tumor growth inhibition, weekly intratumoral doses, CT26 tumor bearing mice (Example B4)", "type": "in vivo, Balb/c mice", "conditions": "500 ng IMDQ equivalent mass intratumorally on days 9, 16, 23 and 28; single flank tumor", "protocol": "Compound No. 64-70 is a non-cleavable variant. All in vivo procedures were conducted in accordance with approved Institutional Animal Care and Use Committee (IACUC) protocols. The animals were housed in a facility that is accredited by the Association for Accreditation and Laboratory Animal Care (AALAC, Frederick, Md.). Wild-type female Balb/c mice (15-20 g) were obtained from Envigo (Hayward, Calif.) and acclimated for 2-3 days prior to use.\nas §1, with “On experimental” for “On”, “flank. Tumors were allowed to grow until they were ˜50 mm^3, at which point animals were assigned to groups, 8 mice per group, to begin treatment.” for “flank.”, “30” for “27”"}},
  "data": [
    {"smiles": "CCCCCCCCCCCCCC(=O)NCc1ccc(Cn2c(CCCC)nc3c(N)nc4ccccc4c32)cc1", "note": "[Compound No. 64-10a, N-(4-((4-amino-2-butyl-1H-imidazo[4,5-c]quinolin-1-yl)methyl)benzyl)tetradecanamide]", "values": [
      {"measurement": "CT26 tumor growth control compared to the vehicle control", "setting": "[1]", "value": "significant CT26 tumor growth control"},
      {"measurement": "EC50", "setting": "[2]", "value": 2, "unit": "nM"},
      {"measurement": "in vitro and in vivo TLR7 agonist potency relative to IMDQ", "setting": "[2]; data not shown", "value": "equal in vitro and in vivo TLR7 agonist potency to IMDQ"}
    ]},
    {"smiles": "CCCCc1nc2c(N)nc3ccccc3c2n1Cc1ccc(CN)cc1", "note": "[IMDQ, 1-(4-aminomethylbenzyl)-2-butyl-1H-imidazo[4,5-c]quinolin-4-amine]", "values": [
      {"measurement": "expression level of APC maturation marker CD86 in popliteal lymph nodes", "setting": "[3]", "value": "induced activation/maturation of cells"},
      {"measurement": "expression level of CD86 on APCs in the spleen", "setting": "[3]", "value": "comparable"},
      {"measurement": "tumor growth control in the injected tumor", "setting": "[4]", "value": "comparable improvements in tumor growth control over either agent administered individually"},
      {"measurement": "tumor growth control in the uninjected tumor", "setting": "[4]", "value": "comparable improvements in tumor growth control over either agent administered individually"},
      {"measurement": "gene expression response in popliteal lymph nodes at the lowest dose", "setting": "[5]", "value": "induced gene expression"},
      {"measurement": "serum IL-12p40", "setting": "[6]; 1 μg", "value": "levels above background"},
      {"measurement": "serum IL-6", "setting": "[6]; 5 μg", "value": "elevated levels"},
      {"measurement": "serum IL-12p40", "setting": "[6]; 5 μg", "value": "elevated levels"},
      {"measurement": "serum TNFα", "setting": "[6]; 5 μg", "value": "elevated levels"}
    ]},
    {"smiles": "CCCCc1nc2c(N)nc3ccccc3c2n1Cc1ccc(CNC(=O)OCc2ccc(SCCNC(=O)CN=[N+]=[N-])cc2)cc1", "note": "[Compound No. 64-70]", "values": [
      {"measurement": "CT26 tumor growth inhibition", "setting": "[7]", "value": "no CT26 tumor growth inhibition"}
    ]}
  ]
}
